Test results: PMC7470127, “Design, synthesis, and evaluation of 1, 4-benzodioxan-substituted chalcones as selective and reversible inhibitors of human monoamine oxidase B” (Journal of Enzyme Inhibition and Medicinal Chemistry, 2020)

What was measured:
[1] = target: T1, hMAO-A (Homo sapiens, UniProt P21397); assay: hMAO inhibition assay (Amplex Red fluorescence), hMAO-A, p-tyramine substrate; assay type: biochemical; details: for IC50: recombinant hMAO-A
T1 sequence (P21397 1-527): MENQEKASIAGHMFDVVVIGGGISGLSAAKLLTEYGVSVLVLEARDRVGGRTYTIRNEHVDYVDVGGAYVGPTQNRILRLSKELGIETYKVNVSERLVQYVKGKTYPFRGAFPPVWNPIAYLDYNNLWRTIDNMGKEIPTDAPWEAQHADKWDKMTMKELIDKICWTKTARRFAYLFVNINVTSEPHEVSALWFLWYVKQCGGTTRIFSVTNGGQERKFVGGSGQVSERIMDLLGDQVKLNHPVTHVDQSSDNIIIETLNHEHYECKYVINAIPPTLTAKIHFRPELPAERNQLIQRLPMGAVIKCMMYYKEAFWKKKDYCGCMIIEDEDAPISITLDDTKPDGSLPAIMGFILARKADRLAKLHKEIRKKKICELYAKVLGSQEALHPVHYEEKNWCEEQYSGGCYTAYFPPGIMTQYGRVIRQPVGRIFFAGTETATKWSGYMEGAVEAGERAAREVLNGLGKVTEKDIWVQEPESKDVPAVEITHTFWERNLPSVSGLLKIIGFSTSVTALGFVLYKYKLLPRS
Procedure: The hMAO inhibition assay was performed as previously described. Adequate amounts of recombinant hMAO-A/B were acquired and adjusted to 12.5 µg/mL or 75 µg/mL for hMAO-A or hMAO-B, respectively, with sodium phosphate buffer (50 mM, pH 7.4). The test compounds were dissolved in DMSO as stock solutions (10 mM) and diluted with sodium phosphate buffer (50 mM, pH 7.4) to the corresponding concentrations. Then the test compounds (20 µL) and hMAO (80 µL) were incubated for 15 min at 37 °C in a flat, black-bottomed 96-well microtest plate in the dark. The reaction was initiated by adding Amplex Red reagent (200 µM, final concentration), horseradish peroxidase (2 U/mL, final concentration), and 2 mM p-tyramine for hMAO-A or 2 mM benzylamine (final concetration) for hMAO-B and incubated at 37 °C for 20 min. Activity was quantified in a multi detection microplate fluorescence reader (SpectraMax M5, Molecular Devices, USA) based on the fluorescence generated (excitation, 545 nm; emission, 590 nm). The specific fluorescence emission was calculated after subtraction of the background activity. The background activity was determined from wells containing all components except the hMAO isoforms, which were replaced by a sodium phosphate buffer solution. The percentage inhibition was calculated by the following expression: (1 – IFi/IFc) × 100, in which IFi and IFc are the fluorescence intensities obtained for hMAO in the presence and absence of inhibitors after subtracting the respective background. […]

[2] = target: T2, hMAO-B (Homo sapiens, UniProt P27338); assay: hMAO inhibition assay (Amplex Red fluorescence), hMAO-B, benzylamine substrate; assay type: biochemical; details: for IC50: recombinant hMAO-B, read-out: hMAO-B IC50; for inhibition at 1 µM: tested concentration 1 µM; for Selectivity Index (SI): SI = IC50 (hMAO-A)/IC50 (hMAO-B); for fold higher inhibitory potency than 4: from IC50, versus compound 4
T2 sequence (P27338 1-520): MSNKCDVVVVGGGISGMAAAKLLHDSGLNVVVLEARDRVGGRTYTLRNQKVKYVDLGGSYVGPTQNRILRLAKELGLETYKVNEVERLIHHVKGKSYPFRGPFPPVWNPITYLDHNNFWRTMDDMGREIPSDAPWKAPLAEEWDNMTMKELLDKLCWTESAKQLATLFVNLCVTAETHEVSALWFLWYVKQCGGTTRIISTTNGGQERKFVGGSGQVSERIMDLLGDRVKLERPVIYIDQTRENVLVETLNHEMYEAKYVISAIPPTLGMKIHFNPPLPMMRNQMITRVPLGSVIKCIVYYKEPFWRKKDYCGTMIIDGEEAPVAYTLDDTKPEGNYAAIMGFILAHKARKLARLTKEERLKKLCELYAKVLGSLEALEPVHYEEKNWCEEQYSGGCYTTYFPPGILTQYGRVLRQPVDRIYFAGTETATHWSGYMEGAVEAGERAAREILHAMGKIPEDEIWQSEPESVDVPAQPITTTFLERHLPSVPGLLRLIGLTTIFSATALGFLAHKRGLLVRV
Procedure: The hMAO inhibition assay was performed as previously described. […] The test compounds were dissolved in DMSO as stock solutions (10 mM) and diluted with sodium phosphate buffer (50 mM, pH 7.4) to the corresponding concentrations. […] The specific fluorescence emission was calculated after subtraction of the background activity. The background activity was determined from wells containing all components except the hMAO isoforms, which were replaced by a sodium phosphate buffer solution. The percentage inhibition was calculated by the following expression: (1 – IFi/IFc) × 100, in which IFi and IFc are the fluorescence intensities obtained for hMAO in the presence and absence of inhibitors after subtracting the respective background.

SMILES | IC50 [1] | IC50 [2] | inhibition at 1 µM [2] | Selectivity Index (SI) [2] | fold higher hMAO-B inhibition than 1 ([2]; from IC50, versus compound 1) | melting point | fold higher inhibitory potency than 4 [2] | inhibition at 0.1 µM ([1]; read-out: hMAO-A % inhibition)
O=C(C=Cc1ccccc1)c1ccccc1 [Compound 1, 1,3-diphenyl-2-propen-1-one] | > 40 µM | 13.04 ± 0.06 µM | – | – | – | – | – | –
O=C(/C=C/c1ccc2ccccc2c1)c1ccccc1 [Compound 2, (E)-3-(naphthalen-2-yl)-1-phenylprop-2-en-1-one] | > 40 µM | – | 18.1% | – | – | – | – | –
O=C(/C=C/c1ccc2c(c1)OCO2)c1ccccc1 [Compound 3, (E)-3-(benzo[d][1,3]dioxol-5-yl)-1-phenylprop-2-en-1-one] | > 40 µM | – | 50.8% | – | – | – | – | –
O=C(/C=C/c1ccc2c(c1)OCCO2)c1ccccc1 [Compound 4, (E)-3-(2,3-dihydrobenzo[b][1,4]dioxin-6-yl)-1-phenylprop-2-en-1-one] | > 40 µM | – | 84.9% | >186 | 55 fold | – | – | –
O=C(/C=C/c1ccc2c(c1)OCCO2)c1ccccc1O [Compound 5, (E)-3-(2,3-dihydrobenzo[b][1,4]dioxin-6-yl)-1-(2-hydroxyphenyl)prop-2-en-1-one] | > 40 µM | 0.3 ± 0.02 µM | 75% | >133 | – | 120.8 to 122.3 °C | – | –
COc1cccc(C(=O)/C=C/c2ccc3c(c2)OCCO3)c1 [Compound 6, (E)-3-(2,3-dihydrobenzo[b][1,4]dioxin-6-yl)-1–(3-methoxyphenyl)prop-2-en-1-one] | > 40 µM | 0.34 ± 0.01 µM | 78% | >118 | – | 94.4 to 95.6 °C | – | –
O=C(/C=C/c1ccc2c(c1)OCCO2)c1ccc(O)cc1 [Compound 7, (E)-3–(2,3-dihydrobenzo[b][1,4]dioxin-6-yl)-1-(4-hydroxyphenyl)prop-2-en-1-one] | > 40 µM | – | 26% | – | – | – | – | –
COc1ccc(C(=O)/C=C/c2ccc3c(c2)OCCO3)cc1 [Compound 8, (E)-3–(2,3-dihydrobenzo[b][1,4]dioxin-6-yl)-1-(4-methoxyphenyl)prop-2-en-1-one] | > 40 µM | – | 51.7% | – | – | 93.8 to 94.9 °C | – | –
O=C(/C=C/c1ccc2c(c1)OCCO2)c1cccc(O)c1 [Compound 9, (E)-3–(2,3-dihydrobenzo[b][1,4]dioxin-6-yl)-1-(3-hydroxyphenyl)prop-2-en-1-one] | > 40 µM | 0.15 ± 0.007 µM | 86.3% | >267 | – | 196.8 to 198.5 °C | – | –
O=C(/C=C/c1ccc2c(c1)OCCO2)c1ccc(O)cc1O [Compound 10, (E)-3-(2,3-dihydrobenzo[b][1,4]dioxin-6-yl)-1–(2,4-dihydroxyphenyl)prop-2-en-1-one] | > 40 µM | – | 69.5% | – | – | 169.5 to 170.8 °C | – | –
COc1ccc(C(=O)/C=C/c2ccc3c(c2)OCCO3)cc1OC [Compound 11, (E)-3–(2,3-dihydrobenzo[b][1,4]dioxin-6-yl)-1–(3,4-dimethoxyphenyl)prop-2-en-1-one] | > 40 µM | – | 22.4% | – | – | 110 to 111.1 °C | – | –
O=C(/C=C/c1ccc2c(c1)OCCO2)c1ccccc1F [Compound 12, (E)-3–(2,3-dihydrobenzo[b][1,4]dioxin-6-yl)-1-(2-fluorophenyl)prop-2-en-1-one] | > 40 µM | 0.12 ± 0.01 µM | 89.2% | >333 | – | 93.7 to 95.4 °C | 1.8–4.1 fold | –
O=C(/C=C/c1ccc2c(c1)OCCO2)c1ccccc1Cl [Compound 13, (E)-1-(2-chlorophenyl)-3-(2,3-dihydrobenzo[b][1,4]dioxin-6-yl)prop-2-en-1-one] | > 40 µM | 0.054 ± 0.006 µM | 92.4% | >741 | – | 67.5 to 69.4 °C | 1.8–4.1 fold | –
O=C(/C=C/c1ccc2c(c1)OCCO2)c1ccccc1Br [Compound 14, (E)-1-(2-bromophenyl)-3-(2,3-dihydrobenzo[b][1,4]dioxin-6-yl)prop-2-en-1-one] | > 40 µM | 0.081 ± 0.004 µM | 92.6% | >494 | – | 70.3 to 72.2 °C | 1.8–4.1 fold | –
O=C(/C=C/c1ccc2c(c1)OCCO2)c1cccc(F)c1 [Compound 15, (E)-3-(2,3-dihydrobenzo[b][1,4]dioxin-6-yl)-1-(3-fluorophenyl)prop-2-en-1-one] | > 40 µM | 0.13 ± 0.007 µM | 89.2% | >308 | – | – | 1.7–4 fold | –
O=C(/C=C/c1ccc2c(c1)OCCO2)c1ccc(Cl)cc1 [Compound 18, (E)-1–(4-chlorophenyl)-3–(2,3-dihydrobenzo[b][1,4]dioxin-6-yl)prop-2-en-1-one] | > 40 µM | – | 69.9% | – | – | – | – | –
O=C(/C=C/c1ccc2c(c1)OCCO2)c1ccc(Br)cc1 [Compound 19, (E)-1–(4-bromophenyl)-3–(2,3-dihydrobenzo[b][1,4]dioxin-6-yl)prop-2-en-1-one] | > 40 µM | – | 68.1% | – | – | 136.7 to 138.2 °C | – | –
O=C(/C=C/c1ccc2c(c1)OCCO2)c1ccc(F)cc1 [Compound 20, (E)-3-(2,3-dihydrobenzo[b][1,4]dioxin-6-yl)-1-(4-fluorophenyl)prop-2-en-1-one] | > 40 µM | 0.068 ± 0.007 µM | 87.5% | >588 | – | 135.5 to 136.5 °C | – | –
O=C(/C=C/c1ccc2c(c1)OCCO2)c1ccc(C(F)(F)F)cc1 [Compound 21, (E)-3-(2,3-dihydrobenzo[b][1,4]dioxin-6-yl)-1-(4-(trifluoromethyl)phenyl)prop-2-en-1-one] | > 40 µM | 0.23 ± 0.0005 µM | 76.8% | >174 | – | 139 to 140.2 °C | – | –
O=C(/C=C/c1ccc2c(c1)OCCO2)c1ccc(Cl)c(Cl)c1 [Compound 23, (E)-1-(3,4-dichlorophenyl)-3–(2,3-dihydrobenzo[b][1,4]dioxin-6-yl)prop-2-en-1-one] | > 40 µM | 0.17 ± 0.02 µM | 88.8% | >235 | – | 156.6 to 157.9 °C | – | –
O=C(/C=C/c1ccc2c(c1)OCCO2)c1cc(Br)ccc1O [Compound 24, (E)-1-(5-bromo-2-hydroxyphenyl)-3-(2,3-dihydrobenzo[b][1,4]dioxin-6-yl)prop-2-en-1-one] | > 40 µM | 0.25 ± 0.03 µM | 77.1% | >160 | – | 141.8 to 143.7 °C | – | –
O=C(/C=C/c1ccc2c(c1)OCO2)c1ccc(Cl)cc1 [Compound 28, (E)-3-(benzo[d][1,3]dioxol-5-yl)-1-(4-chlorophenyl)prop-2-en-1-one] | > 40 µM | – | 57.5% | – | – | – | – | –
C#CCN(C)CCCOc1ccc(Cl)cc1Cl [clorgyline, reference compound] | – | – | – | – | – | – | – | 86.6%
